Measurements: patent US6066642A, “Dihydropyridine-, pyridine-, benzopyran-4-one- and triazoloquinazoline derivative, their preparation and their use as adenosine receptor antagonists” (priority 1998, dated 2000)
Where two headings read alike, the source gives them in different places.

Assays:
A2a receptors = target: T1, A2a receptors (Rattus norvegicus, UniProt P30543); experiment: radioligand binding, displacement of specific [3H]CGS 21680 binding in rat striatal membranes; conditions: for inhibition at 100 µM: 10^-4 M
T1 construct: Displacement of specific [^3 H]; from tissue; host or cells: rat striatal membranes
T1 sequence (P30543 whole entry): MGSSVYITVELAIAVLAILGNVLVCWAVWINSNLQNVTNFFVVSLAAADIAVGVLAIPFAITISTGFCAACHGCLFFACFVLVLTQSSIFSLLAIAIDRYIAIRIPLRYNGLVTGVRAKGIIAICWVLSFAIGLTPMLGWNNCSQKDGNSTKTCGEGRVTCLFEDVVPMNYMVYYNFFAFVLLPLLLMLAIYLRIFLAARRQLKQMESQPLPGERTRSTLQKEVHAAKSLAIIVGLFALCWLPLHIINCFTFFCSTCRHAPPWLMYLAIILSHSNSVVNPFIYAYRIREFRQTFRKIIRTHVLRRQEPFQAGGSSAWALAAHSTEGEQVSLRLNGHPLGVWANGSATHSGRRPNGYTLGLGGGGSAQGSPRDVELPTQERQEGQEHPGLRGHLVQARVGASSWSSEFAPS
Protocol: ^b Displacement of specific [^3 H]
or as a percentage of specific binding displaced at 100 μM.

A1 receptors = target: T2, A1 receptors (Rattus norvegicus, UniProt P25099); experiment: biochemical; type: binding; conditions: for Ki: [3H]PIA, rat brain membranes; for inhibition at 100 µM: 10^-4 M, read-out: displacement of specific binding rA1
T2 sequence (P25099 1-326): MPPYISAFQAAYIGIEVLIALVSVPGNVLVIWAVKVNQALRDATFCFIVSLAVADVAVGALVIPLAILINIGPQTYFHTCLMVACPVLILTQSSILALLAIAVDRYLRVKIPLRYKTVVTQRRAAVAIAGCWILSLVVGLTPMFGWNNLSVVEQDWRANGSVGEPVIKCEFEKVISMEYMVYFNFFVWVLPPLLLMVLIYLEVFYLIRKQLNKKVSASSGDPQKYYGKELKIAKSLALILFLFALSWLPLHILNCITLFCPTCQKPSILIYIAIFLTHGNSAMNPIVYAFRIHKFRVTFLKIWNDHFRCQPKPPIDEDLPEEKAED
Protocol: ^a Displacement of specific [^3 H] PIA binding in rat brain
percentage of specific binding displaced at 100 μM.

human A3 receptors = target: T3, human A3 receptors (Homo sapiens, UniProt P0DMS8); experiment: radioligand binding, displacement of specific [125I]AB-MECA binding at human A3 receptors expressed in HEK-293 cells; conditions: for Ki: [125I]AB-MECA; for inhibition at 100 µM: 10^-4 M; for inhibition at 10 µM: 10^-5 M
T3 construct: expressed in transfected cells; host or cells: HEK-293 cells (membranes)
T3 sequence (P0DMS8 1-318): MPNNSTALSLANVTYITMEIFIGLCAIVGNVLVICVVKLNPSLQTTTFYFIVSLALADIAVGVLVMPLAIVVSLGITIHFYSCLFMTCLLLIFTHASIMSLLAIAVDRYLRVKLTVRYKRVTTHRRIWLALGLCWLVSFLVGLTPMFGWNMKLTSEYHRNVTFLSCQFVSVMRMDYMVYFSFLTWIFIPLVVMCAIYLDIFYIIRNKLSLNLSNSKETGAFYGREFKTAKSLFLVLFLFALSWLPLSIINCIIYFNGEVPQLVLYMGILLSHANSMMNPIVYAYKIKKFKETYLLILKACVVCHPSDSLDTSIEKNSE
Protocol: A3 receptors expressed in HEK293 cells, in membranes, expressed as
binding displaced at 100 μM.

[1] = Table 15, [3H]CGS 21680, rat striatal membranes, read-out: Ki rA2A
[2] = Table 15, HEK membranes, read-out: Ki hA3
[3] = Table 6, [3H]CGS 21680, rat striatal membranes, read-out: K2 (rA2a)
[4] = Table 3, read-out: displacement of specific binding rA2a
[5] = Table 3, HEK-293 membranes, read-out: Ki hA3
[6] = Table 7, read-out: displacement of specific binding rA2A
[7] = Table 7, read-out: displacement of specific binding hA3
[8] = Table 6, read-out: % inhibition hA3

Structure (SMILES): CCC(=O)Nc1nc2ccc(Cl)cc2c2nc(-c3ccco3)nn12 [Compound 146, 9-Chloro-2-(2-furyl)-5-propionylamino[1,2,4]triazolo[1,5-c]quinazoline]
- Ki (A2a receptors; [1]): 0.106 ± 0.03 µM
- Ki (A1 receptors; Table 15, read-out: Ki rA1): 0.283 ± 0.042 µM
- Ki (human A3 receptors; [2]): 0.00766 ± 0.00303 µM
- rA1/hA3 (human A3 receptors; Table 15, ratio of Ki): 40
- rA2A/hA1 (human A3 receptors; Table 15, ratio of Ki): 14

Structure (SMILES): CCOc1c2ccoc2cc2oc(/C=C/C=Cc3ccccc3)cc(=O)c12 [Compound 23, 4-ethoxy-7-phenylbutadienyl visnagin]
- Ki (A2a receptors; Table 5, [3H]CGS 21680, rat striatal membranes, read-out: Ki rA2a): 167 µM
- inhibition at 100 µM (A1 receptors; Table 5): < 10%
- rA1/hA3 (human A3 receptors; Table 5, ratio of Ki): > 4

Structure (SMILES): O=c1[nH]c2ccc(Cl)cc2c2nc(-c3ccco3)nn12 [Compound 158, 9-Chloro-2-(2-furyl)[1,2,4]triazolo[1,5-c]quinazolin-5-(6H)-one]
- Ki (A2a receptors; [1]): 4 µM
- Ki (A1 receptors; Table 15, read-out: Ki rA1): 3 µM
- Ki (human A3 receptors; [2]): 0.26 ± 0.087 µM

Structure (SMILES): CC(=O)Oc1cc(OC(C)=O)c2c(=O)c(OC(C)=O)c(-c3ccccc3)oc2c1 [Compound 34, 3,5,7-triacetoxyflavone]
- Ki (A2a receptors; [3]): 56.5 ± 9.5 µM
- Ki (A1 receptors; Table 6, read-out: K2 (rA1)): 11.6 ± 4.4 µM
- Ki (human A3 receptors; Table 6, HEK-293 membranes, read-out: K2 (hA3)): 17.5 ± 2 µM

Structure (SMILES): CCOc1ccc(-c2oc3cc(OCC)cc(O)c3c(=O)c2OCC)c(OCC)c1 [Compound 7, 2',4',3,7-Tetraethoxy-5-hydroxymorin]
- inhibition at 100 µM (A2a receptors; [4]): < 10%
- inhibition at 100 µM (A1 receptors; Table 3): < 10%
- Ki (human A3 receptors; [5]): 4.83 ± 1.4 µM
- rA1/hA3 (human A3 receptors; Table 3, ratio of Ki): > 40

Structure (SMILES): O=C(Nc1nc2ccc(Cl)cc2c2nc(-c3ccc(Br)o3)nn12)c1ccccc1 [Compound 156]
- Ki (A2a receptors; [1]): > 1 µM
- Ki (A1 receptors; Table 15, read-out: Ki rA1): > 1 µM
- Ki (human A3 receptors; [2]): 0.856 ± 0.156 µM

Structure (SMILES): CCCC(=O)Nc1nc2ccc(Cl)cc2c2nc(-c3ccco3)nn12 [Compound 147, 5-Butyrylamino-9-chloro-2-(2-furyl)[1,2,4]triazolo[1,5-c]quinazoline]
- Ki (A2a receptors; [1]): 0.004 µM
- Ki (A1 receptors; Table 15, read-out: Ki rA1): 0.0325 ± 0.0094 µM
- rA1/hA3 (human A3 receptors): 2.2
- Ki (human A3 receptors; [2]): 0.0146 ± 0.0028 µM

Structure (SMILES): COc1c2ccoc2cc2oc(C=Nc3ccccc3)cc(=O)c12 [Compound 24, 4-methoxy-7-(CH=N-phenyl)visnagin]
- inhibition at 100 µM (A2a receptors; Table 5, read-out: displacement of specific binding rA2a): < 10%
- inhibition at 100 µM (A1 receptors; Table 5): < 10%
- rA1/hA3 (human A3 receptors; Table 5, ratio of Ki): > 20

Structure (SMILES): COC1C=CC23c4cc5c(cc4C[N+](C)(CC2OC(C)=O)C3C1)OCO5 (stereo not shown) [Compound 48, acetylhaemanthine methiodide, reference compound]
- inhibition at 100 µM (A2a receptors; [6]): < 10%
- Ki (A1 receptors; Table 7, read-out: Ki (rA1)): 52.5 ± 3.7 µM
- inhibition at 100 µM (human A3 receptors; [7]): < 10%

Structure (SMILES): COc1cc(OC)c(-c2oc3ccccc3c(=O)c2O)c(OC)c1 [Compound 9, reference compound]
- inhibition at 100 µM (A2a receptors; [4]): < 10%
- Ki (A1 receptors; Table 3, read-out: Ki rA1): 7.32 ± 1.36 µM
- Ki (human A3 receptors; [5]): 50.1 ± 7.8 µM
- rA1/hA3 (human A3 receptors; Table 3, ratio of Ki): 0.15

Structure (SMILES): COc1ccc(-c2cc(=O)c3ccc(O)cc3o2)cc1OC [Compound 27, reference compound]
- Ki (A2a receptors; [3]): 35.4 ± 7.3 µM
- Ki (A1 receptors; Table 6, read-out: K2 (rA1)): 18.8 ± 3.6 µM
- inhibition at 100 µM (human A3 receptors; [8]): 32 ± 4%

Structure (SMILES): CCOC(=O)C1=C(C)NC(C)=C(C(=O)OC)C1C#Cc1ccccc1 (stereo not shown) [Compound 76]
- Ki (A2a receptors; Table 9, [3H]CGS 21680, rat striatal membranes, read-out: Ki rA2A): 38.3 ± 7.9 µM
- Ki (A1 receptors; Table 9, read-out: Ki rA1): 5.39 ± 0.33 µM
- greater affinity to A1 than A2a adenosine receptors (A1 receptors; selectivity in words): greater affinity to A1 adenosine receptors than A2a receptors
- Ki (human A3 receptors; Table 9, HEK membranes, read-out: Ki hA3): 0.94 ± 0.7 µM
- greater affinity for A3 than A1 or A2a adenosine receptors (human A3 receptors; selectivity in words): greater affinity for A3 adenosine receptors than A1 or A2a adenosine receptors

Structure (SMILES): O=c1cc(-c2ccc(O)cc2)oc2cc(O)cc(O)c12 [Compound 28, apigenin, reference compound]
- Ki (A2a receptors; [3]): 7.58 ± 1.23 µM
- Ki (A1 receptors; Table 6, read-out: K2 (rA1)): 3 ± 0.29 µM
- inhibition at 10 µM (human A3 receptors; [8]): 63 ± 1%

Structure (SMILES): COc1cc2c3c(c1)c1cc4c(cc1c(=O)n3CC2)OCO4 [Compound 47, oxogalanthine lactam, reference compound]
- inhibition at 100 µM (A2a receptors; [6]): < 10%
- Ki (A1 receptors; Table 7, read-out: Ki (rA1)): 5.55 ± 0.83 µM
- inhibition at 100 µM (human A3 receptors; [7]): < 10%

Structure (SMILES): COc1c(O)cc2oc(-c3ccc(O)cc3)cc(=O)c2c1O [Compound 32, hispidulin, reference compound]
- Ki (A2a receptors; striatal membranes, read-out: K2 (rA2a)): 6.48 ± 0.65 µM
- Ki (A1 receptors; Table 6, read-out: K2 (rA1)): 1.61 ± 0.29 µM
- inhibition at 10 µM (human A3 receptors; [8]): 63 ± 2%
